In US10954214B2 (Janssen Pharmaceutica NV, priority 2016, dated 2021) one finds IC50 data, which are given here for 17 compounds.

pIC50: −log10 of the molar value.

The test system of one assay is TMD8 cells. Description: 4-day proliferation assay, TMD8. The format is cell-based. To be noted: Homo sapiens, 96 h, 4 days incubation, CellTiterGLO, read-out: Anti-proliferation: TMD-8 IC50. The procedure:
(§1) To assess anti-proliferative effects, MALT1 inhibitor test compounds were tested in 4-day proliferation assays using three different DLBCL cell lines.
(§2) Cells should be kept between 0.5-2.5 million cells per mL during culturing and cells should be supplemented every 2-3 days with fresh 50 μM beta-mercaptoenthanol. No beta-mercaptoethanol is used during the proliferation assay. OCI-Ly7 cells were propagated in IMDM (ThermoFisher) supplemented with 10% fetal bovine serum (HyClone), 2 mM L-glutamine (Sigma Aldrich) and 50 μg/mL Gentamycin. Cell passage numbers should not exceed 30 (for OCI-Ly3 cells with passage number lower than 10 were used).
(§3) 10,000 TMD8, 10,000 OCI-Ly3 or 2,000 OCI-Ly7 cells were seeded in 100 μL media per well and incubated for 4 days at 37° C. and 5% CO2. Cell plating numbers were chosen based on growth curves to ensure linear cell growth. After 4 days of incubation 50 μL CellTiterGLO reagent (Promega) were added to each well and luminescence was measured on the Envision after 10 min of incubation at room temperature.
(§4) LC=median of the low control values
(§5) An estimate of the slope of the plot in terms of the Hill coefficient was also obtained.

The subject of a further assay is OCI-Ly3 cells. The assay can be described thus: 4-day proliferation assay, OCI-Ly3. The format is cell-based, human. To be noted: Homo sapiens, 96 h, 4 days incubation, CellTiterGLO, read-out: Anti-proliferation: OCI-LY-3 IC50. The protocol:
as §1, §2, §3, §4, §5

In assay [1] the test system is IL6 secretion by TMD8 ABC-DLBCL cells. The assay can be described thus: Human IL6 Mesoscale assay (TMD-8). The format is cell-based. To be noted: Homo sapiens, TMD8; TMD-8 cells, 24 h. The method, boiled down: (§6)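 After 24 h at 37 °C with test compounds (15 μM down to 58.6 nM, 9 twofold steps, 0.3% DMSO), IL6 and IL10 secreted by 100,000 OCI-LY3 or TMD8 cells per well were measured in supernatants with a Mesoscale immunoassay. Data were scaled between DMSO wells (high) and RN486 treatment (low).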

In assay [2] the target is full-length MALT1 protein (Strep-MALT1(1-824)-His) (Homo sapiens (Human), UniProt Q9UDY8). Description: MALT1 Biochemical Protease Assay (Ac-LRSR-AMC substrate). To be noted: 10 nM FL MALT1, 200 μM Ac-LRSR-AMC, 4 h at RT; read-out: MALT1_Biochemical activity (Ac-LRSR-amc) IC50. The method, boiled down:
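Full-length MALT1 pre-incubated with compounds (30 μM to 0.5 nM, 11 threefold steps) for 50 min at RT. After Ac-LRSR-AMC was added, the reaction ran 4 h at RT and AMC fluorescence was read. IC50 and Hill slope from curve fitting against no-enzyme and no-compound controls.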

For assay [3], the system named is IL10 secretion by TMD8 ABC-DLBCL cells. The assay can be described thus: Human IL10 Mesoscale assay (TMD-8). The format is cell-based. To be noted: Homo sapiens, TMD8; TMD-8 cells, 24 h. In a few lines:
as §6

full-length MALT1 protein (Strep-MALT1(1-824)-His), sequence (Q9UDY8 whole entry): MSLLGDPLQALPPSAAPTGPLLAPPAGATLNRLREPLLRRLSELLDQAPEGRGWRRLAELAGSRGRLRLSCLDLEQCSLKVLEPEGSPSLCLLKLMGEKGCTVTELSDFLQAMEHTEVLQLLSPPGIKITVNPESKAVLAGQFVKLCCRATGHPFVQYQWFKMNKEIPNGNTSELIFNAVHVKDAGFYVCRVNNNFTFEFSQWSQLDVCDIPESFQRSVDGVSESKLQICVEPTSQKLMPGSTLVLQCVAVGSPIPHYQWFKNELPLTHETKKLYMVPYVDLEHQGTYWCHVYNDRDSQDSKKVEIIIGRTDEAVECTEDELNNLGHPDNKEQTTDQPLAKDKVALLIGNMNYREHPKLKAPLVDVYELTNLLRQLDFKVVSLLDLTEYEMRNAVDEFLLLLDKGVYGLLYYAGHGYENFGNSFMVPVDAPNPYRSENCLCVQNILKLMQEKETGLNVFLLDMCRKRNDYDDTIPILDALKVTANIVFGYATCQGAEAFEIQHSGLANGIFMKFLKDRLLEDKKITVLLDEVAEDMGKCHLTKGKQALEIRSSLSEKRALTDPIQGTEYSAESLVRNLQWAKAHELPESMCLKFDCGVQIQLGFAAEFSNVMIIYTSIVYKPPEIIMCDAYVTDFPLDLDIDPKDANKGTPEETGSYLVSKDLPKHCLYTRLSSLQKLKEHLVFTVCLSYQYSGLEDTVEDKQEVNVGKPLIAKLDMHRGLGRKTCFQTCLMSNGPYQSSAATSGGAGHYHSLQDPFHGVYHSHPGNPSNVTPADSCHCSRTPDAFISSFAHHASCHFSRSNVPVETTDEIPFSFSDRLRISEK

As to `CN1C(=O)COc2c(Cl)cc(NC(=O)c3cnn(-c4cncc5ccccc45)c3C(F)(F)F)cc21` [Cpd 97, N-(8-chloro-4-methyl-3-oxo-3,4-dihydro-2H-benzo[b][1,4]oxazin-6-yl)-1-(isoquinolin-4-yl)-5-(trifluoromethyl)-1H-pyrazole-4-carboxamide], the pIC50 is approximately 5.23 in the assay on TMD8 cells; 5.46 in the assay with OCI-Ly3 cells; 6.24 in assay [1]; 6.68 in assay [2]; 6.59 in assay [3].
Turning to `Cn1ccnc1-c1ncc(NC(=O)c2cnn(-c3cncc4ccccc34)c2C(F)(F)F)cc1Cl` [Cpd 98, N-(5-chloro-6-(1-methyl-1H-imidazol-2-yl)pyridin-3-yl)-1-(isoquinolin-4-yl)-5-(trifluoromethyl)-1H-pyrazole-4-carboxamide], the pIC50 was approximately 4.96 in the assay with TMD8 cells; 5.24 in the assay with OCI-Ly3 cells; 6.33 in assay [1]; 6.70 in assay [2]; 6.38 in assay [3].
On to `N#Cc1cc(NC(=O)c2cnn(-c3nccc4ccoc34)c2C(F)(F)F)cnc1-n1nccn1` [Cpd 99, N-(5-cyano-6-(2H-1,2,3-triazol-2-yl)pyridin-3-yl)-1-(furo[2,3-c]pyridin-7-yl)-5-(trifluoromethyl)-1H-pyrazole-4-carboxamide], for which the pIC50 is approximately 5.49 with TMD8 cells; 6.19 with OCI-Ly3 cells; 7.17 in assay [1]; 7.96 in assay [2]; 7.33 in assay [3].
For `N#Cc1cc(NC(=O)c2cnn(-c3nccc4ncccc34)c2C(F)(F)F)cnc1-n1nccn1` [Cpd 100, N-(5-cyano-6-(2H-1,2,3-triazol-2-yl)pyridin-3-yl)-1-(1,6-naphthyridin-5-yl)-5-(trifluoromethyl)-1H-pyrazole-4-carboxamide], in that order: approximately 5.28, 5.71, 6.60, 7.43 and 6.81.
As to `COC(=O)c1cnn(-c2ncc(NC(=O)c3cnn(-c4cccc5ncccc45)c3C(F)(F)F)cc2Cl)n1` [Cpd 108, Methyl 2-(3-chloro-5-(1-(quinolin-5-yl)-5-(trifluoromethyl)-1H-pyrazole-4-carboxamido)pyridin-2-yl)-2H-1,2,3-triazole-4-carboxylate], the pIC50 in the assay on TMD8 cells was 5.78; in the assay on OCI-Ly3 cells, 5.95; in assay [1], less than 6.52; in assay [2], 7.64; in assay [3], less than 6.52.
In the case of `O=C(Nc1cnc(-n2nccn2)c(Cl)c1)c1cnn(-c2cccc3nnsc23)c1C(F)(F)F` [Cpd 120, 1-(benzo[d][1,2,3]thiadiazol-7-yl)-N-(5-chloro-6-(2H-1,2,3-triazol-2-yl)pyridin-3-yl)-5-(trifluoromethyl)-1H-pyrazole-4-carboxamide], the pIC50 is 5.71 in the assay on TMD8 cells; 6.49 with OCI-Ly3 cells; 6.99 in assay [1]; 7.52 in assay [2]; 7.07 in assay [3].
In the same order, the values of `Cc1nc(-n2nccn2)c(Cl)cc1NC(=O)c1cnn(-c2cncc3c(F)cccc23)c1C(F)(F)F` [Cpd 123, N-(5-chloro-2-methyl-6-(2H-1,2,3-triazol-2-yl)pyridin-3-yl)-1-(8-fluoroisoquinolin-4-yl)-5-(trifluoromethyl)-1H-pyrazole-4-carboxamide] are 6.30, 6.40, 6.41, 7.89 and 6.74.
On to `Cc1nc(-n2nccn2)c(C#N)cc1NC(=O)c1cnn(-c2cncc3c(F)cccc23)c1C(F)(F)F` [Cpd 124, N-(5-cyano-2-methyl-6-(2H-1,2,3-triazol-2-yl)pyridin-3-yl)-1-(8-fluoroisoquinolin-4-yl)-5-(trifluoromethyl)-1H-pyrazole-4-carboxamide], for which the pIC50 is 6.01 in the assay with TMD8 cells; 6.23 in the assay with OCI-Ly3 cells; 7.68 in assay [1]; 7.70 in assay [2]; 7.82 in assay [3].
In the same order, the values of `N#Cc1cc(NC(=O)c2cnn(-c3ccnc4sccc34)c2C(F)(F)F)cnc1-n1nccn1` [Cpd 126, N-(5-cyano-6-(2H-1,2,3-triazol-2-yl)pyridin-3-yl)-1-(thieno[2,3-b]pyridin-4-yl)-5-(trifluoromethyl)-1H-pyrazole-4-carboxamide] are 6.10, 6.87, 7.68, 7.82 and 7.37.
Consider `[2H]c1ccc2c(-n3ncc(C(=O)Nc4cnc(-n5nccn5)c(C#N)c4)c3C(F)(F)F)cccc2n1` [Cpd 130, N-(5-cyano-6-(2H-1,2,3-triazol-2-yl)pyridin-3-yl)-1-(2-D-quinolin-5-yl)-5-(trifluoromethyl)-1H-pyrazole-4-carboxamide], for which the pIC50 was 5.46 in the assay on TMD8 cells; 6.38 with OCI-Ly3 cells; 6.67 in assay [1]; 7.77 in assay [2]; 6.78 in assay [3].
In the same order, the values of `[2H]c1ccc2c(-n3ncc(C(=O)Nc4cnc(-n5nccn5)c(Cl)c4)c3C(F)(F)F)cccc2n1` [Cpd 131, N-(5-chloro-6-(2H-1,2,3-triazol-2-yl)pyridin-3-yl)-1-(2-Dquinolin-5-yl)-5-(trifluoromethyl)-1H-pyrazole-4-carboxamide] are 5.58, 6.58, 7.25, 7.77 and 7.68.
For `N#Cc1cc(NC(=O)c2cnn(-c3cccc4ncccc34)c2C(F)(F)F)ccc1-n1nccn1` [Cpd 133, N-(3-cyano-4-(2H-1,2,3-triazol-2-yl)phenyl)-1-(quinolin-5-yl)-5-(trifluoromethyl)-1H-pyrazole-4-carboxamide], in that order: 5.48, 6.56, 6.90, 7.72 and 7.27.
In the same order, the values of `Nc1cnn(-c2ncc(NC(=O)c3cnn(-c4cccc5c(=O)[nH]ccc45)c3C(F)(F)F)cc2Cl)n1` [Cpd 134, N-(6-(4-amino-2H-1,2,3-triazol-2-yl)-5-chloropyridin-3-yl)-1-(1-oxo-1,2-dihydroisoquinolin-5-yl)-5-(trifluoromethyl)-1H-pyrazole-4-carboxamide] are 4.70, 5.99, 7.24, 7.70 and 7.34.
Consider `O=C(Nc1cnc(-n2ncc(CO)n2)c(Cl)c1)c1cnn(-c2cccc3ncccc23)c1C(F)(F)F` [Cpd 136, N-(5-chloro-6-(4-(hydroxymethyl)-2H-1,2,3-triazol-2-yl)pyridin-3-yl)-1-(quinolin-5-yl)-5-(trifluoromethyl)-1H-pyrazole-4-carboxamide], for which the pIC50 in the assay on TMD8 cells is 5.64; in the assay with OCI-Ly3 cells it was 6.38; in assay [1], 7.35; in assay [2], 7.68; in assay [3], 7.51.
For `N#Cc1cc(NC(=O)c2cnn(-c3ccnc4ccccc34)c2C(F)(F)F)cnc1-n1nccn1` [Cpd 138, N-(5-cyano-6-(2H-1,2,3-triazol-2-yl)pyridin-3-yl)-1-(quinolin-4-yl)-5-(trifluoromethyl)-1H-pyrazole-4-carboxamide], in that order: 5.60, 6.35, 6.61, 7.64 and 6.90.
In the same order, the values of `N#Cc1cc(NC(=O)c2cnn(-c3ncnn4cccc34)c2C(F)(F)F)cnc1-n1nccn1` [Cpd 140, N-(5-cyano-6-(2H-1,2,3-triazol-2-yl)pyridin-3-yl)-1-(pyrrolo[2,1-f][1,2,4]triazin-4-yl)-5-(trifluoromethyl)-1H-pyrazole-4-carboxamide] are 5.27, 5.93, 7.14, 7.62 and 7.55.
In the same order, the values of `O=C(Nc1cnc(-n2nccn2)c(Cl)c1)c1cnn(-c2nccn3nccc23)c1C(F)(F)F` [Cpd 141, N-(5-chloro-6-(2H-1,2,3-triazol-2-yl)pyridin-3-yl)-1-(pyrazolo[1,5-a]pyrazin-4-yl)-5-(trifluoromethyl)-1H-pyrazole-4-carboxamide] are 5.22, 6.30, 7.29, 7.60 and 7.41.
